From US7485619B2, “Antimicrobial agent” (priority 2005, dated 2009) come the findings set out here.

Assay [1] has as its system methicillin-resistant Staphylococcus aureus (ATCC 700698). It is filed as cell-based. On the procedure: (§1) E. coli (ATCC 20922) (5×10^5 cells) in 100 μL of 10 mM Phosphate Buffer, pH 7.0 containing mucocidin peptide concentration of 5, 10, 15, 20, or 50 μM was incubated for an hour. Then, it was diluted 200 fold with the same buffer and 300 μL aliquots (approx. 750 cells) were plated on 150 mm LB plate and grown overnight at 37° C. The grown colonies were counted. The cell viability was estimated by the percent of colony forming units. Staphylococcus aureus (ATCC 25923) and methicillin resistant Staphylococcus aureus (MRSA) (ATCC 700698) were incubated with mucocidin concentration up to 5 μM. Candida albicans (ATCC 10231) were incubated with mucocidin concentration levels up to 50 μM^44.

Assay [2] has as its system Aspergellous niger (ATCC #16404). The assay is described as follows: USP Antimicrobial Test. The conditions noted are these: three log dilution. It is filed as cell-based. From the text:
(§2) The mucocidin (Microtest Laboratories Test sample #05-03383) met the requirement of the USP Validation of Microbial Recovery.

Assay [3] deals with E. coli (ATCC #8739). The assay is described as follows: USP Antimicrobial Test. It is filed as cell-based. The conditions noted are these: three log dilution.
Source text: as §2

For assay [4], the system named is Candida albicans (ATCC #10231). The assay is described as follows: USP Antimicrobial Test. It is filed as cell-based. The conditions noted are these: three log dilution.
Source text: as §2

For assay [5], the system named is S. aureus (ATCC #6538). The assay is described as follows: USP Antimicrobial Test. It counts as cell-based. The conditions noted are these: three log dilution.
Source text: as §2

For assay [6], the system named is P. aeruginosa (ATCC #9027). The assay is described as follows: USP Antimicrobial Test. It is filed as cell-based. The conditions noted are these: three log dilution.
Source text: as §2

For assay [7], the system named is Staphylococcus aureus (ATCC 25923). It is filed as cell-based. The conditions noted are these: for bactericidal activity (in words): Table 1. On the procedure: (§3) FIGS. 2A-2C show antimicrobial activity of mucocidin. (A) The growth rate of E. coli (0.5×10^3) containing pBluescript SK plasmid with mucocidin cDNA insert and the control E. coli containing plasmid alone in 20 ml LB broth cultured for 5 days. Cell growth was monitored by Absorbance at 600 nm (A600). Induction of vector expression by 20 μL isopropyl-B-D-thiogalactopyranoside (IPTG 1 mM) is on the bottom line. Each point represents average of five experiments. (B) Bactericidal activity of synthetic mucocidin peptide was measured by the percent colony formation units of E. coli and Staphylococcus aureus. Cells (5×10^5) were cultured in 100 μL in IB broth containing 0, 5, 10, 20 μM concentration of mucocidin. After one hour, cell viability was determined by plating 300 μL aliquots of the 200 fold diluted cultured cell broth on LBA or TSA plates, respectively. […] (C) Scanning electron micrographs of E. coli, Staphylococcus aureus and Candida albicans incubated with 10, […] mucocidin, respectively for 10, 20 and 30 min, and they were immediately fixed with glutaraldehyde, dried on the Millipore membrane, and coated with gold. […] All photographs were taken at the same magnification. Scale bar, 1 μm.
as §1
Bactericidal activity of various deletion peptides of mucocidin (PeptRon, Korea) was compared with the activity of Magainin II (23 mer) peptide (Table 1). […] Also first 15 residue peptide likely functions as propeptide and native peptide will likely have 31 residues.

In assay [8] the test system is Candida albicans (ATCC 10231). It is filed as cell-based. On the procedure:
as §1

Assay [9] concerns E. coli (ATCC25922). It is filed as cell-based. The conditions noted are these: for decrease of colony forming unit (CFU) percentages: one hour incubation. As for the experimental part: as §3, §1
In assay [10] the test system is E. coli. The assay is described as follows: Scanning electron micrography of microbes treated with mucocidin. It counts as cell-based. The conditions noted are these: 10 μM mucocidin; 10, 20 and 30 min. On the procedure: as §3
(§4) Scanning Electron Micrographs were taken of E. coli, Staphylococcus aureus and Candida albicans incubated with 10, 40, 100 μM mucocidin, respectively for 10, 20 and 30 min, and they were immediately fixed with glutaraldehyde, dried on Millipore membrane, and coated with gold. […] All photographs were taken at the same magnification.
(§5) The primary growth of E. coli containing the mucocidin peptide was inhibited in a dose-dependent manner (FIG. 2B). […] To explore a possible mechanism of mucocidin elicited bactericidal activity, the progress of morphological alteration of microbes upon the treatment of mucocidin was determined by scanning electron Microscopy. E. coli, Staphylococcus aureus and Candida albicans (FIG. 2C) incubated with 10, 40, 100 μM mucocidin, respectively for various time periods, were immediately fixed, dried, and coated with gold. […]

The test system of assay [11] is Candida albicans. The description is as above. It counts as cell-based. The conditions noted are these: 100 μM mucocidin; 10, 20 and 30 min. As for the experimental part: as §3, §4, §5
Assay [12] relates to Staphylococcus aureus. Described as above. It is filed as cell-based. The conditions noted are these: 40 μM mucocidin; 10, 20 and 30 min. On the procedure: as §3, §4, §5
Assay [13] concerns the target T1, guinea pig liver transglutaminase (UniProt P08587).
T1 construct: using guinea pig liver transglutaminase (Sigma, St. Luois, Mo.); purchased Sigma; host or cells: guinea pig liver
The assay is described as follows: Mucocidin as transglutaminase substrate, monodansylcadaverine incorporation. The conditions noted are these: 50 μM mucocidin, 10 μM MDC; 20, 40, 60, 120 min; with or without Ca++. It counts as biochemical. As for the experimental part: Mucocidin as a transglutaminase substrate was carried out by a slightly modified method of previously described^27 using guinea pig liver transglutaminase (Sigma, St. Luois, Mo.). Transglutaminase assay was carried out by adding 10 μl of enzyme (10 μg) into 90 μL of reaction mixture containing 0.05 M tris acetate buffer, pH 8.0,1 mM EDTA, 5 mM dithiothreitol, 10 mM CaCl2, 0.2% lubrol, and 10 μM of monodansylcadaverine (MDC)(Sigma) and mucocidin (50 μM). Ten μL aliquot of the reaction mixture was removed at 20, 40, 60 and 120 min and added into 500 μL volume of 1 mM EDTA solution to halt the enzyme reaction. Unreacted MDC in solution was extracted with n-hexane. The reacted mucocidin in aqueous solution was blotted on a cellulose nitrate membrane in a slot filtering apparatus (Bio Rad Lab) and washed once with 0.5 mL of water. Relative fluorescence was indicated as a measure of MDC incorporated mucocidin. The aliquots taken from each sample was analyzed on SDS-PAGE.
These immunological staining of the mucosal epithelium indicate that mucocidin is expressed in the outer layers of epithelium and the secreted peptide remains bound to the epithelial surface. […]

Assay [14] concerns E. coli. The assay is described as follows: Antimicrobial activity of isolated native salivary mucocidin. It is filed as cell-based. The conditions noted are these: data not shown.
Assay [15] is described as follows: Bacteriocidal activity of salivary mucocidin fractions. The conditions noted are these: both Superose 12 peak fractions. It is filed as cell-based. On the procedure: Thirty milliliters of parotid saliva from each volunteer was collected into the tube containing 1.0 ml of 0.25 M citrate buffer, pH 4.0 containing 0.02% NaN3. The 10 ml acidified saliva was adsorbed into SP-Sepharose column (2.4×6 ml) equilibrated with 0.025 M citrate buffer pH 4.0, the column was washed with 3 fold column volume each of the equilibrating buffer and the 0.05 M tris-acetate buffer pH 6.0 containing 1 mM EDTA. The mucocidin was eluted with the 0.05 M tris-acetate buffer, pH 6.0 containing 0.15 M NaCl. The eluted mucocidin containing fractions assayed by immunodot blot analysis were pooled and concentrated in Speed-vac centrifuge evaporation apparatus. Pooled mucocidin fractions were applied to Superose 12 column equilibrated with 0.02 M tris-acetate buffer pH 6.0. Two of the mucocidin peaks were detected first at 8 kDa molecular weight marker and next far beyond the column volume.

Read-outs that look alike come from different tables or passages of the source. No end group written: not given here.

T1 sequence (P08587 whole entry): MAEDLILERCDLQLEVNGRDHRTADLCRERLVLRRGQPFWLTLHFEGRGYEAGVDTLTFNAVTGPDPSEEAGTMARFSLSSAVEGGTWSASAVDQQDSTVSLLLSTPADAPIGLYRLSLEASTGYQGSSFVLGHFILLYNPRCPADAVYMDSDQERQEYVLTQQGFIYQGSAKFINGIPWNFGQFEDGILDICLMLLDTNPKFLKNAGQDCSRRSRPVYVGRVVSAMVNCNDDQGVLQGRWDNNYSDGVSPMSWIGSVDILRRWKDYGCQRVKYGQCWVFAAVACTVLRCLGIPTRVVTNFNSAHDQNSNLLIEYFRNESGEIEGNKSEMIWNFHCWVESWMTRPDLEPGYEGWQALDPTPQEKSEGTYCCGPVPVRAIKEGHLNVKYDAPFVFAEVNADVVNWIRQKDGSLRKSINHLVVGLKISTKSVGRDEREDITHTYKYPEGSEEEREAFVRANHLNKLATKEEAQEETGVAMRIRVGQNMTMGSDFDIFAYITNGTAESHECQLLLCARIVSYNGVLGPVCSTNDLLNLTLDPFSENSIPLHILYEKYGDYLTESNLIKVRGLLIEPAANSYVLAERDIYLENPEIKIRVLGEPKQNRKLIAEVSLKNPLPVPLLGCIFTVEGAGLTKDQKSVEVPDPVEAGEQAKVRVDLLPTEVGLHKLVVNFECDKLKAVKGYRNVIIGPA

On to `CC1(C)S[C@@H]2[C@H](NC(=O)[C@H](N)c3ccccc3)C(=O)N2[C@H]1C(=O)O` [ampicillin, reference compound], for which the “sensitivity of methicillin-resistant Staphylococcus aureus (in words)” value in assay [1] is listed as “insensitive”.
For the compound “ATSSVSSRVLNRSLQVKVVKITN [Peptide 23-mer-C]”, the “growth of the organism” value in assay [2], in assay [3], in assay [4], in [5] and in [6] was “almost no growth” each time. Besides, in assay [7] (ATCC 25923), the “S. aureus (MBC, μM)” value is above 10.0 µM.
With “EYIYNSACSVLSATSSVSSRVLNRSLQVKVVKITN [Peptide 35-mer]”, the “S. aureus (MBC, μM)” value in assay [7] (ATCC 25923) was above 50.0 µM.
With “GIGKFLHSAKKFGKAFVGEIMNS [Magainin II, reference compound]”, in assay [7] (Table 1, deletion peptides), the “S. aureus (MBC, μM)” value is above 3.0 µM.
For “MHDFWVLWVLLEYIYNSACSVLSATSSVSSRVLNRSLQVKVVKITN [Peptide 46-mer]”, the “minimal bactericidal concentration (MBC)” value was 50 ± 10.9 µM in assay [1], 80 ± 13.5 µM in [8], 40 ± 7.3 µM in assay [9] (ATCC25922) and 3 ± 0.5 µM in [7] (ATCC 25923). Besides, the “sensitivity of methicillin-resistant Staphylococcus aureus (in words)” value in [1] is reported as “very sensitive to low concentrations”. The “decrease of colony forming unit (CFU) percentages” value is 20% in assay [9] (5 μM mucocidin), 40% in assay [9] (10 μM mucocidin), 50% in [9] (15 μM mucocidin) and 60% in assay [9] (20 μM mucocidin). The “morphology of the microbe by SEM” value in assay [10] was “loss and shrinkage of original cell shapes”; in assay [11] it was “loss and shrinkage of original cell shapes”; in [12], “loss and shrinkage of original cell shapes”. Further, the “time-dependent uptake of MDC into mucocidin” value in [13] is reported as “detected only in the presence of Ca^++”. The “S. aureus (MBC, μM)” value in assay [7] (ATCC 25923) is above 70.0 µM. In addition, the “sensitivity of primary growth of Staphylococcus aureus relative to E. coli” value in [7] (S. aureus versus E. coli) is “ten fold more sensitive”. In addition, in [7], the “bactericidal activity (in words)” value was “good bactericidal activity”.
For the compound “M^1HDFWVLWVLLEYIYNSACSVLS^23 (MHDFWVLWVLLEYIYNSACSVLS; listed as Homo sapiens) [Peptide 23-mer-N, mucocidin residues 1-23]”, the “bactericidal activity (in words)” value in [7] is “no activity”.
On to “SRVLNRSLQVKVVKITN [Peptide 17-mer, SRVLNRSLQVKVVKITN]”, for which the “S. aureus (MBC, μM)” value in assay [7] (ATCC 25923) is above 5.0 µM.
Regarding SSVSSRVLNRSLQVKVVKITN [Peptide 21-mer], the “S. aureus (MBC, μM)” value in assay [7] (ATCC 25923) is above 3.5 µM.
Same read-out and setting: the same measure for “VLNRSLQVKVVKITN [Peptide 15-mer, VLNRSLQVKVVKITN]”: above 20.0 µM.
In the case of “VSSRVLNRSLQVKVVKITN [Peptide 19-mer, VSSRVLNRSLQVKVVKITN]”, in [7] (ATCC 25923), the “S. aureus (MBC, μM)” value was above 3.5 µM.
Consider “isolated native salivary mucocidin: glycosylated native mucocidin isolated from human parotid saliva by ion exchange and Superose 12 chromatography (MHDFWVLWVLLEYIYNSACSVLSATSSVSSRVLNRSLQVKVVKITN; also: glycosylated, sites not given here)”, for which, in [14], the “antimicrobial activity against E. coli” value is recorded as “retained antimicrobial activity”. In addition, the bacteriocidal activity result in [15] is given as “bacteriocidal activity similar to mucocidin peptides”.
